Laboratory results taken from the RepoRT retention time repository (doi:10.1007/s11356-017-9929-x).

Assay: RP, GL Sciences Inertsil ODS-4, 150 × 2.1 mm, 3 µm, 40 °C, 0.3 mL/min, estimated dead time 1.1 min; A: water + 5 mM ammonium acetate; B: methanol + 5 mM ammonium acetate; gradient (min/%B) 0/5 30/95 50/95
Settings: stereoisomer not certain

LC retention time [min]	SMILES
20.1	NC1=NCC2c3ccccc3Cc3ccccc3N12 (configuration not stated)
27.2	CCC1OC(=O)C(C)C(OC2CC(C)(OC)C(O)C(C)O2)C(C)C(OC2OC(C)CC(N(C)C)C2O)C(C)(OC)CC(C)C(=O)C(C)C(O)C1(C)O (configuration not stated)
28.1	CN(C)CCC=C1c2ccccc2CCc2ccccc21
15.1	[2H]C([2H])([2H])Oc1cc(NS(=O)(=O)c2ccc(N)cc2)nc(OC([2H])([2H])[2H])n1
9.83	[2H]c1c([2H])c(S(=O)(=O)Nc2cc(C)on2)c([2H])c([2H])c1N
21.8	CC(C)NCC(O)COc1cccc2ccccc12 (configuration not stated)
20	CC(C)NCC(O)COc1cccc2[nH]c3ccccc3c12 (configuration not stated)
28.4	OCCN(CCO)c1nc(N2CCCCC2)c2nc(N(CCO)CCO)nc(N3CCCCC3)c2n1
20	CC(C)NCC(O)COc1ccc(COCCOC(C)C)cc1 (configuration not stated)
16.1	Oc1ccc2nc(-c3cscn3)[nH]c2c1
18.5	CCOc1ccc(NC(C)=O)cc1
14.7	COc1cc(OC)nc(NC(=O)NS(=O)(=O)c2c(-c3nnn(C)n3)cnn2C)n1
9.08	CC(C)NCC(O)c1ccc(NS(C)(=O)=O)cc1 (configuration not stated)
8.05	Nc1ccc(S(=O)(=O)Nc2ncccn2)cc1
28.8	CCOC(=O)NCCOc1ccc(Oc2ccccc2)cc1
11.6	Cc1ccnc(NS(=O)(=O)c2ccc(N)cc2)n1
17.6	COc1cc(C)c(Cc2cnc(N)nc2N)cc1OC
17.8	COCCc1ccc(OCC(O)CNC(C)C)cc1 (configuration not stated)
19.1	CC(=O)CC(c1ccccc1)c1c(O)c2ccccc2oc1=O (configuration not stated)
13.3	CN=C(NC#N)NCCSCc1nc[nH]c1C
15.5	COc1cc(NS(=O)(=O)c2ccc(N)cc2)nc(OC)n1
17.4	CC(=O)CCCCn1c(=O)c2c(ncn2C)n(C)c1=O
28.8	CC(Oc1ccc2ccccc2c1)C(=O)Nc1ccccc1 (configuration not stated)

LC retention time [min]	SMILES
9.3	CC(C)(C)NCC(O)c1ccc(O)c(CO)c1 (configuration not stated)
21.6	CC(C)NCC(O)COc1ccc(CCOCC2CC2)cc1 (configuration not stated)
23.4	Cc1ccc(C(=O)C(C)CN2CCCCC2)cc1 (configuration not stated)
21.6	CN(C)C(=O)Nc1cc(C(C)(C)C)on1
15	COC(=O)NN=Cc1c[n+]([O-])c2ccccc2[n+]1[O-]
25.5	CCC1OC(=O)C(C)C(OC2CC(C)(OC)C(O)C(C)O2)C(C)C(OC2OC(C)CC(N(C)C)C2O)C(C)(O)CC(C)C(=O)C(C)C(O)C1(C)O (configuration not stated)
24.4	CC1=CC(O)CC(=O)Cc2nc(co2)C(=O)N2CCC=C2C(=O)OC(C(C)C)C(C)C=CC(=O)NCC=C1 (configuration not stated)
26	CN(C)CCCN1c2ccccc2CCc2ccccc21
23.6	COc1cc(OC)nc(NC(=O)NS(=O)(=O)Nc2ccccc2C(=O)C2CC2)n1
18.2	CCOC(=O)c1cnn(C)c1S(=O)(=O)NC(=O)Nc1nc(OC)cc(OC)n1
15.4	Cc1cc(=O)n(-c2ccccc2)n1C
11.8	COc1cc(NS(=O)(=O)c2ccc(N)cc2)ncn1
34.9	CCC1CCCC(OC2CCC(N(C)C)C(C)O2)C(C)C(=O)C2=CC3C(C=C(C)C4CC(OC5OC(C)C(OC)C(OC)C5OC)CC43)C2CC(=O)O1 (configuration not stated)
8.97	CC(C)(C)NCC(O)c1cc(O)cc(O)c1 (configuration not stated)
33.5	Cc1nn(C)c(Oc2ccccc2)c1C=NOCc1ccc(C(=O)OC(C)(C)C)cc1
15.8	CN1CCN(CC(=O)N2c3ccccc3C(=O)Nc3cccnc32)CC1
9.03	Cc1nnc(NS(=O)(=O)c2ccc(N)cc2)s1
19.6	CCCCNC(=O)NS(=O)(=O)c1ccc(C)cc1
21.3	COc1cc(C)nc(-n2nc(C)cc2OC)n1
17.4	COC(=O)c1ccc(CNS(C)(=O)=O)cc1S(=O)(=O)NC(=O)Nc1nc(OC)cc(OC)n1
15.5	COCCOc1ccccc1S(=O)(=O)NC(=O)Nc1nc(OC)nc(OC)n1
26.7	COc1ccc(CCN(C)CCCC(C#N)(c2ccc(OC)c(OC)c2)C(C)C)cc1OC (configuration not stated)

The remaining lines, values behind:

SMILES	LC retention time [min]
CSC1=NC(C)(c2ccccc2)C(=O)N1Nc1ccccc1 (configuration not stated)	26.3
COC(=O)c1sccc1S(=O)(=O)NC(=O)Nc1nc(C)nc(OC)n1	13.9
CCOc1nc(NC)nc(NC(=O)NS(=O)(=O)c2ccccc2C(=O)OC)n1	17.7
[2H]C([2H])([2H])NC(=O)Oc1cccc2c1OC(C)(C)C2	20.5
[2H]C([2H])([2H])OP(N)(=O)SC([2H])([2H])[2H] (configuration not stated)	4.22
OC(CCCN1CCCCC1)(c1ccccc1)c1ccccc1	23.2
CNC(=O)C(=NOC)c1ccccc1Oc1ccccc1	24.6
COC(=O)c1ccccc1CS(=O)(=O)NC(=O)Nc1nc(OC)cc(OC)n1	22.1
CC(C)C1(C)N=C(c2nc3ccccc3cc2C(=O)O)NC1=O (configuration not stated)	14.7
CCC(C)c1ccccc1OC(=O)NC (configuration not stated)	25.2
CCCC(=NOCC)C1=C(O)CC(CC(C)SCC)CC1=O (configuration not stated)	25.6
CC(C(O)c1ccc(O)cc1)N1CCC(Cc2ccccc2)CC1 (configuration not stated)	21
CC12C=CC(=O)C=C1CCC1C2C(O)CC2(C)C1CCC2(O)C(=O)CO (configuration not stated)	22.2
COC=C(C(=O)OC)c1ccccc1Oc1cc(Oc2ccccc2C#N)ncn1	26.1
CC#Cc1cc(C)nc(Nc2ccccc2)n1	28.1
CC1CCCCC1NC(=O)Nc1ccccc1 (configuration not stated)	25.6
Nc1ccc(S(=O)(=O)Nc2nccs2)cc1	10.6
[2H]C([2H])([2H])N(C(=O)Oc1nc(N(C)C)nc(C)c1C)C([2H])([2H])[2H]	22.8
COc1ccc2c(c1)C13CCCCC1C(C2)N(C)CC3 (configuration not stated)	24.2
CNC(=O)N(C)c1nnc(C(C)(C)C)s1	21.7
CNC(=O)N(C)c1nc2ccccc2s1	23.8
CCCC1CC(C(=O)NC(C(C)O)C2OC(SC)C(O)C(O)C2O)N(C)C1 (configuration not stated)	21
Cc1cc(C2CC2)nc(Nc2ccccc2)n1	29.8
CNC(=C[N+](=O)[O-])NCCSCc1ccc(CN(C)C)o1	12.5
COP(=S)(OC)Oc1ccc(S(C)=O)c(C)c1 (configuration not stated)	22.2
CC1=NNC(=O)N(N=Cc2cccnc2)C1	13

SMILES	LC retention time [min]
[2H]C([2H])([2H])N=C(NC#N)NCCSCc1nc[nH]c1C	13.3
COC(=O)c1ccccc1S(=O)(=O)NC(=O)N(C)c1nc(C)nc(OC)n1	16.9
CCC1CCCC(OC2CCC(N(C)C)C(C)O2)C(C)C(=O)C2=CC3C(C=CC4CC(OC5OC(C)C(OC)C(OC)C5OC)CC43)C2CC(=O)O1 (configuration not stated)	34.5
Cc1cc(C)cc(C(=O)N(NC(=O)c2ccc3c(c2C)CCCO3)C(C)(C)C)c1	27.9
NC(=O)N1c2ccccc2C=Cc2ccccc21	21.9
Cc1cccc2sc3nncn3c12	18.9
CON=C(C)c1cccc(Oc2nc(OC)cc(OC)n2)c1C(=O)OC	26.5
COc1cc(OC)nc(NC(=O)NS(=O)(=O)c2cc(NC=O)ccc2C(=O)N(C)C)n1	15.9
CCNc1nc(NC(C)C)nc(SC)n1	25.9
C#CC1(OC(C)=O)CCC2C3CCC4=CC(=NO)CCC4C3CCC21CC (configuration not stated)	30.3
[2H]c1c([2H])c([2H])c2[nH]c(NC(=O)OC)nc2c1[2H]	17.1
CCCCc1c(C)nc(N(C)C)[nH]c1=O	23.4
CN1C2CC(OC(=O)C(CO)c3ccccc3)CC1C1OC12 (configuration not stated)	16.4
CCC(C(=O)O)C1CCC(C)C(C(C)C(O)C(C)C(=O)C(CC)C2OC3(C=CC(O)C4(CCC(C)(C5CCC(O)(CC)C(C)O5)O4)O3)C(C)CC2C)O1 (configuration not stated)	35.5
CSc1nc(NC(C)C)nc(NC(C)C)n1	27.6
CNC(=O)Oc1cccc2c1OC(C)(C)C2	21.4
CCCCOC(=O)N(C)SN(C)C(=O)Oc1cccc2c1OC(C)(C)C2	31.5
[2H]C([2H])([2H])NC(=O)ON=C(C)SC	11.9
CCS(=O)(=O)c1nc2ccccn2c1S(=O)(=O)NC(=O)Nc1nc(OC)cc(OC)n1	16.3
Cc1nc(N(C)C)nc(OC(=O)N(C)C)c1C	23.4
CSc1nnc(C(C)(C)C)c(=O)n1N	20.6
CCOC(=O)CCN(SN(C)C(=O)Oc1cccc2c1OC(C)(C)C2)C(C)C	31.1
COC(=O)c1ccccc1S(=O)(=O)NC(=O)Nc1nc(C)nc(OC)n1	13.9
CC12CCC(=O)C=C1CCC1C2CCC2(C)C(O)CCC12 (configuration not stated)	26.6
Cc1ccc(NC(=O)NC(C)(C)c2ccccc2)cc1	26.7
COP(=O)(OC)Oc1ccc(S(C)=O)c(C)c1 (configuration not stated)	16.9
